This note sets out measurements from patent publication US5795857A, “Mimetic insect pyrokinin analogs for insect control” (The United States of America as represented by the …, priority 1996, dated 1998).

The test has as its system virgin females of Heliothis virescens. Description: Pheromonotropic assay (injection). Format: in vivo. How it is done: Pupae of H. virescens were obtained from a laboratory colony maintained at the Insect Attractants, Behavior and Basic Biology Research Laboratory, USDA-ARS, in Gainesville, Fla. The pupae were separated by sex and the males were discarded. After eclosion, the females were held in 4-1 cages and provided with cotton wicks soaked with 5% sucrose solution. The insects were held at 25°±2° C, 65±3% relative humidity with a 12:12 (L:D) photoperiod. Virgin females were used for bioassays 2 and 3 days after eclosion during the 7th-8th hour of the photophase when endogenous levels of pheromone are very low (Abernathy, 1995, Regulation of sex pheromone production and oviposition in virgin females of noctuid moths, doctoral dissertation, University of Florida, Gainesville, Fla., pp. 1-107).
Pheromone biosynthesis neuropeptide from H. zea (Hez--PBAN) and the carboranyl pseudopeptide Cbe--Thr--Pro--Arg--Leu--NH2 were dissolved in physiological saline (Christensen et al., 1991, Proc. Natl. Acad. Sci. USA, 88:4971-4975). Female H. virescens insects were injected through the side of the third abdominal segment using a 26-ga needle with 20 μl of the above solutions. Each female received a dose of 0.01, 0.03, 0.1, 0.3, 1, 3, 10, 30, 100 or 300 pmol. After 1 h of incubation, the terminal abdominal segments, which contain the pheromone gland, were excised and placed in 10 μl of hexane containing 10 ng each of internal standards (octadecane and nonadecane) used for quantitation and calculation of relative retention indices. The pheromone gland extracts were analyzed for the amount of (Z)-11-hexadecenal (Z11-16:AL), the major sex pheromone component of H. virescens (Klun et al., 1980, J. Chem. Ecol., 6:165-175) by capillary gas chromatography. Hewlett-Packard 5890 gas chromatographs were equipped with splitless injectors, flame ionization detectors, and 30 m×0.25 mm (i.d.) fused silica "SPB 10" (polar) or "SPB1" (apolar) columns (Supelco). Conditions of chromatography were as follows: initial temperature=60° C.; injector operated in the splitless mode for 0.5 min; oven temperature increased by 30° C./min after 1 min; final temperature=190° C. ("SPB10") or 200° C. ("SPB1"); helium carrier gas at a linear flow velocity of 18 cm/s. A Nelson Analytical 3000° acquisition system (Cupertino, Calif.) was used to collect and analyze the data (Teal et al., 1989, Proc. Natl. Acad. Sci. USA, 86:2488-2492).
After the dose response of Hez--PBAN was completed, the […] dose was chosen to use for comparison with the carboranyl pseudopeptide assayed here. Insects were also injected with saline alone as a control. The pseudopeptide was prepared by dilution with saline as described above. Based on the dose-response for the activity of Hez--PBAN, […] were chosen to assess the pheromonotropic activity of the carboranyl pseudopeptide. Females were injected with 20 μl containing 0.01, 0.03, 0.1, 0.3, 1, 3, 10, 30, 100, or 300 pmol. Each bioassay consisted of one dose of several different peptides along with saline and Hez--PBAN controls. The amount of pheromone present in extracts of the pheromone glands of females from each group was compared with that produced by females injected with 5 pmol of Hez--PBAN during that particular bioassay. After all the bioassays were completed, the amount of pheromone produced by each insect was calculated as a percentage of the amount of pheromone produced by females treated with Hez--PBAN. Data were analyzed using one-way ANOVA and t-test with "STATVIEW" software. Variability was reported as SEM.
The pheromonotropic activity of Hez--PBAN, Lom--MT--II and [6--Pha--Ala^0 ]Lom--MT--II was first determined by a series of injection bioassays. Peptides were dissolved in physiological saline (Christensen et al., ibid) and diluted to concentrations of 0.003, 0.01, 0.03, 0.1, 0.3, 1.0, 3.0 and 10.0 pmol/μl. Insects were injected through the side of the 3rd abdominal segment using a 26 ga. needle with 20 μl of the above solutions. […]

On to Cbe--Thr--Pro--Arg--Leu--NH2, for which the “potency relative to 33-membered HezPBAN, injection” value runs as follows: (H. virescens) 10 fold; (H. virescens, listed as carboranyl analog) “equipotent”. The “ED50, pheromone production following injection” value (H. virescens females, FIG. 3) is given as 0.1 pmoles/female. Under “H. virescens females, glands extracted 60 min after injection”, the “ED50, pheromone production via injection” value turned out to be 0.1 pmol. Also, the “dose eliciting a 100% response, injection” value (H. virescens, FIG. 3) stood at 2.5 pmoles/female. In addition, the “Maximal Response via injection (dose)” value (maximal pheromone production relative to 5 pmoles PBAN via injection) is 2.5 pmol.
